Data on 1 compound can be found in US9670162B2, “Mitochondrial aldehyde dehyrogenase-2 modulators and methods of use thereof” (The Board of Trustees of the Leland Stanford Junior …, priority 2013, dated 2017).

One series can be described thus: MLM stability T1/2. In kind it is in vitro ADME. The conditions noted are these: mouse, liver microsomes. The procedure: (§1) In vitro ADMET of compounds of the present disclosure was carried out according to known methods in the art. Below are data for certain compounds of the present disclosure.
A further series deals with T1, human ALDH2 wild type (Homo sapiens, UniProt P05091).
T1 construct: His-tag (pTrcHis vector) (N); made in house; host or cells: E. coli BL21
T1 sequence (P05091 18-517): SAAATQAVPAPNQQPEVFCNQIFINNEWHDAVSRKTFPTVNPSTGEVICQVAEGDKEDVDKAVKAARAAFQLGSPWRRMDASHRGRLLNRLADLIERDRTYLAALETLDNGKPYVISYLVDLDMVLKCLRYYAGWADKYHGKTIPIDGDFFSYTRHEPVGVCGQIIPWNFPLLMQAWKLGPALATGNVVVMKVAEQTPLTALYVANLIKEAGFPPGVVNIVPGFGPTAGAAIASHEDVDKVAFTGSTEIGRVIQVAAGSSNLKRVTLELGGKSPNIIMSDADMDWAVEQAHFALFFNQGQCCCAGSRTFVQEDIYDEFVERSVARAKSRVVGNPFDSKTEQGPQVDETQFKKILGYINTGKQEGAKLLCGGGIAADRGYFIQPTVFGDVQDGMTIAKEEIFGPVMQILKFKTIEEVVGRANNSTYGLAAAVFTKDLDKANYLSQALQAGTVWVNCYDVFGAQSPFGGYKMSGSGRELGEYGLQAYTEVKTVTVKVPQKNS
Put plainly: ALDH2 enzymatic assay (NADH at 340 nm), recombinant wild type enzyme. In kind it is biochemical. More on the design: key: −: no activation or inhibition; +: activation less than control 1; ++: activation similar to control 1, within 10%; +++: activation more than control 1 and less than control (compound 161); ++++: activation similar to compound 161, within 10%. Conditions: activation relative to benchmarks control 1 and compound 161.

The next series is described as follows: HLM stability T1/2. In kind it is in vitro ADME. The conditions noted are these: human, liver microsomes; read-out: HLM T1/2. The procedure:
as §1

Series [1] is described as follows: Plasma protein binding (PPB), rat. In kind it is in vitro ADME. The procedure: as §1
Series [2] deals with T2, human ALDH2*2 recombinant mutant enzyme (E487K) (Homo sapiens, UniProt P05091, E504K).
T2 construct: His-tag (pTrcHis vector) (N); made in house; host or cells: E. coli BL21
T2 sequence (P05091 18-517 E504K): T1 sequence (P05091 18-517) with E487K
As to the kind of experiment: ALDH2 enzymatic assay (NADH at 340 nm), recombinant mutant enzyme. On the set-up: key: −: no activation or inhibition; +: activation less than control 1; ++: activation similar to control 1, within 10%; +++: activation more than control 1 and less than control (compound 161); ++++: activation similar to compound 161, within 10%. Type of series: biochemical. Conditions: activation relative to benchmarks control 1 and compound 161.

Another series is described as follows: Caco-2 permeability. In kind it is in vitro ADME. Conditions: human. The procedure:
as §1

A short description of another series: LogD (pH 7.4). Type of series: physicochemical. The procedure: as §1
Another series addresses CYP2C19 (Homo sapiens, UniProt P33261). As to the kind of experiment: Cyp inhibition 2C19. Type of series: in vitro ADME. The conditions noted are these: 10 μM. The procedure:
as §1

Another series can be described thus: Plasma stability, rat. In kind it is in vitro ADME. The procedure:
as §1

A further series deals with T3, CYP1A2 (Homo sapiens, UniProt P05177).
T3 sequence (P05177 1-516): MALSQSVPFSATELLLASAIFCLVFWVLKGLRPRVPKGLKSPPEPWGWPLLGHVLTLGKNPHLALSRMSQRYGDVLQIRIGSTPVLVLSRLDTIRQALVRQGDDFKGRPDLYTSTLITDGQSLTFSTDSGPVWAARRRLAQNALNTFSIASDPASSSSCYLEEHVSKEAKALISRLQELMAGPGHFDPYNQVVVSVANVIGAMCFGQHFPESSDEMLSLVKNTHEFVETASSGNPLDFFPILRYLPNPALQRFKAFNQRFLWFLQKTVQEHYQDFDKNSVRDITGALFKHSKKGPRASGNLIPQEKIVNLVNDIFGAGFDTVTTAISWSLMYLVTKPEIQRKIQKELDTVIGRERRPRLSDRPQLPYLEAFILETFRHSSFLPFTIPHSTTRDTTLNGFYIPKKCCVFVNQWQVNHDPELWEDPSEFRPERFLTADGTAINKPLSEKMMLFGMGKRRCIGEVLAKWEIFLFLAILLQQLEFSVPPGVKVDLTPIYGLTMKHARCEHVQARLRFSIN
As to the kind of experiment: Cyp inhibition 1A2. Type of series: in vitro ADME. The conditions noted are these: 10 μM. The procedure:
as §1

The nature of a further series: Plasma stability, human. Conditions: plasma. Type of series: in vitro ADME. The protocol: as §1
The next series can be described thus: NHPLM stability T1/2. Type of series: in vitro ADME. Conditions: monkey, liver microsomes. The protocol: as §1
Another series in a line: RLM stability T1/2. In kind it is in vitro ADME. The conditions noted are these: rat, liver microsomes. The protocol: as §1
For orientation: Liver microsomes are vesicles of endoplasmic reticulum, rich in cytochrome P450 enzymes.

The target of a further series is CYP2C9 (Homo sapiens, UniProt P11712). Put plainly: Cyp inhibition 2C9. Type of series: in vitro ADME. The procedure:
as §1

A further series is described as follows: Aqueous solubility. Type of series: physicochemical. The procedure:
as §1

In the next series the target is CYP2D6 (Homo sapiens, UniProt P10635). As to the kind of experiment: Cyp inhibition 2D6. Type of series: in vitro ADME. The procedure:
as §1

The target in a further series is CYP3A4 (Homo sapiens, UniProt P08684). As to the kind of experiment: Cyp inhibition 3A4. Type of series: in vitro ADME. The conditions noted are these: 10 μM. The protocol:
as §1

A short description of series [3]: Plasma protein binding (PPB), human. In kind it is in vitro ADME. The procedure: as §1

Substitutions are numbered along the chain they refer to.

In general, fraction unbound refers to the share of the substance not bound to proteins or other matrix. The Papp A→B is how fast a substance crosses the layer from the apical side. Broadly, the Papp B→A is the apparent permeability from the basolateral to the apical side of a cell layer. One may read the logD as lipophilicity at a set pH, counting ionised and neutral species. Usually inhibition stands for the percentage by which the read-out fell short of the control.

Chain of CYP2D6 (P10635 whole entry): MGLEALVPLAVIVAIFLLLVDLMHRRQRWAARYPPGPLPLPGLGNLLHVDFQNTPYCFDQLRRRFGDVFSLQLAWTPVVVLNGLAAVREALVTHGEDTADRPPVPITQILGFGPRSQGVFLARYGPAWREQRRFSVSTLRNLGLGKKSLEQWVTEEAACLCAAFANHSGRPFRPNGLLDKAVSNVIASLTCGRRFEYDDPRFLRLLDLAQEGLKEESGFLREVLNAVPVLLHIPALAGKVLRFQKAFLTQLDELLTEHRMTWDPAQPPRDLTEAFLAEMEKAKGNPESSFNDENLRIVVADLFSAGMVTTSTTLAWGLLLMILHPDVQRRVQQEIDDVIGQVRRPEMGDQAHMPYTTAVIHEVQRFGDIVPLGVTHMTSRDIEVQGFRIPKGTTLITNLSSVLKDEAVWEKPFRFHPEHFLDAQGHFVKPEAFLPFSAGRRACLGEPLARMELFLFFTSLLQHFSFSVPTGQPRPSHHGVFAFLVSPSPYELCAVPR
Chain of CYP3A4 (P08684 whole entry): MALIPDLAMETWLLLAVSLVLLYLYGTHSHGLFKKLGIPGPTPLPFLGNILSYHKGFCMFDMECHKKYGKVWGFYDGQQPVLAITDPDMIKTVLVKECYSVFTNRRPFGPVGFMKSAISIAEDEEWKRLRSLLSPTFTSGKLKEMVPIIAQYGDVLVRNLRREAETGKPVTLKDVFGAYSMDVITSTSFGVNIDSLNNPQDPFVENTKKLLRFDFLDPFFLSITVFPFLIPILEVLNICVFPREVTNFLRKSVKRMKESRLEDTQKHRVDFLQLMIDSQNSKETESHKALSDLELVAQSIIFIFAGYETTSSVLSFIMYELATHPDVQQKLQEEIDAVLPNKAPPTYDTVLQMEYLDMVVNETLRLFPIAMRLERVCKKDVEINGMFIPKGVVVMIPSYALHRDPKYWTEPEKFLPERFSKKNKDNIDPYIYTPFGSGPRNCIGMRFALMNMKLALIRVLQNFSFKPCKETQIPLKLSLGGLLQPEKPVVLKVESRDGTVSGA
Chain of CYP2C19 (P33261 whole entry): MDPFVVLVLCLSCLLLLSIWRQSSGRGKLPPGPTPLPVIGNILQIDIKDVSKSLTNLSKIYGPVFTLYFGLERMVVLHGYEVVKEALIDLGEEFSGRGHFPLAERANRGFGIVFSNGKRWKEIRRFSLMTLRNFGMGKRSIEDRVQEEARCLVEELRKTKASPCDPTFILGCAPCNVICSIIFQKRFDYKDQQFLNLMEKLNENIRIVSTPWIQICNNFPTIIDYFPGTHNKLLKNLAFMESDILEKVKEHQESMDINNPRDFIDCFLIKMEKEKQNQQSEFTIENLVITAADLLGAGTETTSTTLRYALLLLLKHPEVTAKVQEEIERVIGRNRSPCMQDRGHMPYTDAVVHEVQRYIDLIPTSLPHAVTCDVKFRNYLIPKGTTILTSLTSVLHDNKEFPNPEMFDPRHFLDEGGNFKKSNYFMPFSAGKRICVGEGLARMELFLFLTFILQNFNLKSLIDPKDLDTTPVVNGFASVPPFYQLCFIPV
Chain of CYP2C9 (P11712 whole entry): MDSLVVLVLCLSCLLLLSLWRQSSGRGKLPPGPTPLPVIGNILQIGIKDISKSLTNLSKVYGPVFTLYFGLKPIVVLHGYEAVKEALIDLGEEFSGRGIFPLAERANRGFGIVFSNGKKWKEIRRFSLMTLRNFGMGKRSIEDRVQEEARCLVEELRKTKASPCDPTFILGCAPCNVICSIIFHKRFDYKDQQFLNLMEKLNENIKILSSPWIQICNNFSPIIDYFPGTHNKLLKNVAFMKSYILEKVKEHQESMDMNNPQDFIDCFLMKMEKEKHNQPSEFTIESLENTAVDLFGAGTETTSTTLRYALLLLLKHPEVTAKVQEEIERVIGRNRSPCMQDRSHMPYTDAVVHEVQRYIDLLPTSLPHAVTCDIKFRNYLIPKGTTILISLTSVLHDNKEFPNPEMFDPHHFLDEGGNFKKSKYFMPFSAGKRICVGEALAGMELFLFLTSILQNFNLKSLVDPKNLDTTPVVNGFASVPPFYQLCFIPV

For the compound `O=C(NCc1ccc2c(c1)OCO2)c1c(Cl)cccc1Cl` [Control 1, reference compound], the half-life in the series “MLM stability T1/2” worked out at 0.753 min; in “HLM stability T1/2”, 21.2 min; in “NHPLM stability T1/2”, 1.57 min; in “RLM stability T1/2”, 1.33 min. In addition, at human ALDH2 wild type, the “ALDH2 (wild-type)” value was “++”. Also, the fraction unbound was 0.037 in [1] and 0.025 in series [3]. Moreover, in series [2], the “ALDH2 (mutant)” value is “++”. Besides, in the series “Caco-2 permeability” (A-B, read-out: Caco-2 Papp A-B), the Papp A→B was 166 nm/s. In “Caco-2 permeability” (B-A), this compound returned a Papp B→A of 117 nm/s. For the same compound, the efflux ratio in “Caco-2 permeability” (ratio, read-out: Caco-2 Papp B-A/A-B) was determined as 0.7. The same compound displayed a logD in the series “LogD (pH 7.4)” of 3.4. The inhibition at 10 µM stood at 72.4% against CYP2C19; 31.9% against CYP1A2; 16.3% against CYP2C9; 9.1% against CYP2D6; 83.5% against CYP3A4. In “Plasma stability, rat”, this compound displayed a Plasma stability Rat of 100%. The compound further returned a Plasma stability Human in the series “Plasma stability, human” of 100%. Also, the “Aqu. Solu.” value in the series “Aqueous solubility” is 12 µg/mL.
